Data reported in patent US7491794B2, “Macrocyclic compounds as inhibitors of viral replication” (Intermune, Inc., priority 2003, dated 2009).
Where two headings read alike, the source gives them in different places.

Key:
NS3-NS4A protease = biological target: T1, NS3-NS4A protease (Hepatitis C virus genotype 1a, UniProt P27958); assay: NS3-NS4A protease assay (NS3 inhibition assay, RETS1 substrate), Section B; assay type: biochemical
T1 construct: Recombinant E. coli or Baculovirus full-length NS3 was diluted to 3.33 μM with assay buffer; made in house; host or cells: E. coli or baculovirus (BV) system
T1 sequence (P27958 1027-1657): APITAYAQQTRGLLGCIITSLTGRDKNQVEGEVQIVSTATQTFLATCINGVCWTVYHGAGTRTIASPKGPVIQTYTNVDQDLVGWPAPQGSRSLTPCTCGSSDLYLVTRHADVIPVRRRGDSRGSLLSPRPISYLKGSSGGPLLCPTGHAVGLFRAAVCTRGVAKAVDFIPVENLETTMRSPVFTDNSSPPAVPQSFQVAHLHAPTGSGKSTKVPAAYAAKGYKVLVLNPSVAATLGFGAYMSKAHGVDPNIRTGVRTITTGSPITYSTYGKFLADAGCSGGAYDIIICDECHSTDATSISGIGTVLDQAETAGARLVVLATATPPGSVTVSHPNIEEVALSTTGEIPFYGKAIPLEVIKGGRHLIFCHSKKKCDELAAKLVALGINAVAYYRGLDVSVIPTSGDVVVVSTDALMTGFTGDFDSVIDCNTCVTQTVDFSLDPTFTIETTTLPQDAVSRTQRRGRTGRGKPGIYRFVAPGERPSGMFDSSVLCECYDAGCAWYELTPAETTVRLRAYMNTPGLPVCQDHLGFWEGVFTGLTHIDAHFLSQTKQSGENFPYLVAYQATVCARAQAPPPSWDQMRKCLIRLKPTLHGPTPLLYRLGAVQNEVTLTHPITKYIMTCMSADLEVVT
Summary of the method: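 Full-length NS3 (E. coli or baculovirus) precomplexed with excess NS4A-2 peptide, run at 2 nM (E. coli) or 3 nM (BV) NS3; compounds pre-incubated 10 min at room temperature before RETS1 substrate. Fluorescence (ex 335/em 495 nm) read kinetically 30 min; IC50 from four-parameter fit, converted to Ki via Ki=IC50/(1+[S]/Km).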

[1] = system: HCV sub-genomic replicon, GS4.3; assay: Quantitation by ELISA of NPTII in the HCV sub-genomic replicon, GS4.3, Section B; assay type: cell-based; conditions: Hepatitis C virus; GS4.3 cells, 72 h incubation; read-out: Replicon EC50
Summary of the method: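 GS4.3 cells (HuH-7 carrying HCV 1377/NS3-3′ replicon) were treated 72 h at 37 °C with inhibitors in 3-fold dilutions, 1% DMSO, no G418. Lysate NPTII was measured by ELISA (TMB, 450 nm). Signal as % of DMSO control; EC50 from 4-parameter fit.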

Compound | IC50 (NS3-NS4A protease; read-out: NS3-NS4A IC50) [nM] | EC50 [1] [nM] | IC50 (NS3-NS4A protease) [nM]
O=C(Cc1ccccc1)N[C@H]1CCCCC/C=C\[C@@H]2C[C@@]2(C(=O)NS(=O)(=O)C2CC2)NC(=O)[C@@H]2C[C@@H](OC(=O)N3Cc4cccc(F)c4C3)CN2C1=O [AR00340188, (1S,4R,6S,14S,18R)-4-Fluoro-1,3-dihydro-isoindole-2-carboxylic acid 4-cyclopropanesulfonylaminocarbonyl-2,15-dioxo-14-phenylacetylamino-3,16-diaza-tricyclo[14.3.0.0^4,6]nonadec-7-en-18-yl ester] | < 100 | < 1000 | –
CC(=O)N[C@H](C(=O)N[C@H]1CCCCC/C=C\[C@@H]2C[C@@]2(C(=O)NS(=O)(=O)C2CC2)NC(=O)[C@@H]2C[C@@H](OC(=O)N3Cc4cccc(F)c4C3)CN2C1=O)C1CCCCC1 [AR00340122, (1S,4R,6S,14S,18R)-4-Fluoro-1,3-dihydro-isoindole-2-carboxylic acid 14-(2-acetylamino-2-cyclohexyl-acetylamino)-4-cyclopropanesulfonylaminocarbonyl-2,15-dioxo-3,16-diaza-tricyclo[14.3.0.0^4,6]nonadec-7-en-18-yl ester] | – | < 1000 | < 100
O=C(N[C@H]1CCCCC/C=C\[C@@H]2C[C@@]2(C(=O)NS(=O)(=O)C2CC2)NC(=O)[C@@H]2C[C@@H](OC(=O)N3Cc4ccccc4C4(CCC4)C3)CN2C1=O)O[C@@H]1CCOC1 [AR00314635, (1S,4R,6S,14S,18R)-4,4-Spirocyclobutyl-3,4-dihydro-1H-isoquinoline-2-carboxylic acid 4-cyclopropanesulfonylaminocarbonyl-2,15-dioxo-14-(tetrahydro-furan-3-yloxycarbonylamino)-3,16-diaza-tricyclo[14.3.0.0^4,6]nonadec-7-en-18-yl ester] | < 100 | < 100 | –
O=C(N[C@H]1CCCCC/C=C\[C@@H]2C[C@@]2(C(=O)NS(=O)(=O)C2CC2)NC(=O)[C@@H]2C[C@@H](OC(=O)N3Cc4ccccc4C3)CN2C1=O)O[C@H]1CCOC1 [AR00320080, (1S,4R,6S,14S,18R)-1,3-Dihydro-isoindole-2-carboxylic acid 4-cyclopropanesulfonylaminocarbonyl-2,15-dioxo-14-(tetrahydro-furan-3S-yloxycarbonylamino)-3,16-diaza-tricyclo[14.3.0.0^4,6]nonadec-7-en-18-yl ester] | < 100 | < 1000 | –
O=C(NC1CCOC1)N[C@H]1CCCCC/C=C\[C@@H]2C[C@@]2(C(=O)NS(=O)(=O)C2CC2)NC(=O)[C@@H]2C[C@@H](OC(=O)N3CCc4ccccc4C3)CN2C1=O (stereo partly drawn) [AR00320222, (1S,4R,6S,14S,18R)-3,4-Dihydro-1H-isoquinoline-2-carboxylic acid 4-cyclopropanesulfonylaminocarbonyl-2,15-dioxo-14-[3-(tetrahydro-furan-3-yl)-ureido]-3,16-diaza-tricyclo[14.3.0.0^4,6]nonadec-7-en-18-yl ester] | < 100 | < 10000 | –
CC(C)(C)NC(=O)N[C@H]1CCCCC/C=C\[C@@H]2C[C@@]2(C(=O)O)NC(=O)[C@@H]2C[C@@H](OC(=O)N3Cc4ccc(Cl)cc4C3)CN2C1=O [AR00320449, (1S,4R,6S,14S,18R)-14-(3-tert-Butyl-ureido)-18-(5-chloro-1,3-dihydro-isoindole-2-carbonyloxy)-2,15-dioxo-3,16-diaza-tricyclo[14.3.0.0^4,6]nonadec-7-ene-4-carboxylic acid] | < 100 | < 10000 | –
CC(C)(C)CC(=O)N[C@H]1CCCCC/C=C\[C@@H]2C[C@@]2(C(=O)NS(=O)(=O)C2CC2)NC(=O)[C@@H]2C[C@@H](OC(=O)N3Cc4cccc(F)c4C3)CN2C1=O [AR00338070, (1S,4R,6S,14S,18R)-4-Fluoro-1,3-dihydro-isoindole-2-carboxylic acid 4-cyclopropanesulfonylaminocarbonyl-14-(3,3-dimethyl-butyrylamino)-2,15-dioxo-3,16-diaza-tricyclo[14.3.0.0^4,6]nonadec-7-en-18-yl ester] | < 100 | < 100 | –
CC(C)(C)OC(=O)N[C@H]1CCCCC/C=C\[C@@H]2C[C@@]2(C(=O)NS(=O)(=O)C2CC2)NC(=O)[C@@H]2C[C@@H](OC(=O)N3Cc4cc(Cl)c(Cl)cc4C3)CN2C1=O [AR00320121, (1S,4R,6S,14S,18R)-5,6-Dichloro-1,3-dihydro-isoindole-2-carboxylic acid 14-tert-butoxycarbonylamino-4-cyclopropanesulfonylaminocarbonyl-2,15-dioxo-3,16-diaza-tricyclo[14.3.0.0^4,6]nonadec-7-en-18-yl ester] | < 100 | < 100 | –
COc1ccc2c(c1)CN(C(=O)O[C@@H]1C[C@H]3C(=O)N[C@]4(C(=O)NS(=O)(=O)C5CC5)C[C@H]4/C=C\CCCCC[C@H](NC(=O)OC(C)(C)C)C(=O)N3C1)C2 [AR00334314, (1S,4R,6S,14S,18R)-5-Methoxy-1,3-dihydro-isoindole-2-carboxylic acid 14-tert-butoxycarbonylamino-4-cyclopropanesulfonylaminocarbonyl-2,15-dioxo-3,16-diaza-tricyclo[14.3.0.0^4,6]nonadec-7-en-18-yl ester] | < 100 | < 100 | –
CC(C)(C)OC(=O)N[C@H]1CCCCC/C=C\[C@@H]2C[C@@]2(C(=O)NS(=O)(=O)c2ccc(C(=O)O)cc2)NC(=O)[C@@H]2C[C@@H](OC(=O)N3Cc4cccc(F)c4C3)CN2C1=O [AR00365438, (1S,4R,6S,14S,18R)-4-Fluoro-1,3-dihydro-isoindole-2-carboxylic acid 14-tert-butoxycarbonylamino-4-(4-carboxy-benzenesulfonylaminocarbonyl)-2,15-dioxo-3,16-diaza-tricyclo[14.3.0.0^4,6]nonadec-7-en-18-yl ester] | < 100 | < 100 | –
COc1ccc(S(=O)(=O)NC(=O)[C@@]23C[C@H]2/C=C\CCCCC[C@H](NC(=O)OC(C)(C)C)C(=O)N2C[C@H](OC(=O)N4Cc5ccccc5C4)C[C@H]2C(=O)N3)cc1 [AR00334341, (1S,4R,6S,14S,18R)-1,3-Dihydro-isoindole-2-carboxylic acid 14-tert-butoxycarbonylamino-4-(4-methoxy-benzenesulfonylaminocarbonyl)-2,15-dioxo-3,16-diaza-tricyclo[14.3.0.0^4,6]nonadec-7-en-18-yl ester] | < 100 | < 100 | –
CCNC(=O)c1ccc2c(c1)CN(C(=O)O[C@@H]1C[C@H]3C(=O)N[C@]4(C(=O)NS(=O)(=O)C5CC5)C[C@H]4/C=C\CCCCC[C@H](NC(=O)OC(C)(C)C)C(=O)N3C1)C2 [AR00365252, (1S,4R,6S,14S,18R)-5-Ethylcarbamoyl-1,3-dihydro-isoindole-2-carboxylic acid 14-tert-butoxycarbonylamino-4-cyclopropanesulfonylaminocarbonyl-2,15-dioxo-3,16-diaza-tricyclo[14.3.0.0^4,6]nonadec-7-en-18-yl ester] | < 100 | < 1000 | –
CN(C)c1cccc2c1CCN(C(=O)O[C@@H]1C[C@H]3C(=O)N[C@]4(C(=O)NS(=O)(=O)C5CC5)C[C@H]4/C=C\CCCCC[C@H](NC(=O)OC(C)(C)C)C(=O)N3C1)C2 [AR00320120, (1S,4R,6S,14S,18R)-5-Dimethylamino-3,4-dihydro-1H-isoquinoline-2-carboxylic acid 14-tert-butoxycarbonylamino-4-cyclopropanesulfonylaminocarbonyl-2,15-dioxo-3,16-diaza-tricyclo[14.3.0.0^4,6]nonadec-7-en-18-yl ester] | < 100 | < 100 | –
CC(C)(C)OC(=O)N[C@H]1CCCCC/C=C\[C@@H]2C[C@@]2(C(=O)O)NC(=O)[C@@H]2C[C@@H](OC(=O)N3CCc4ccccc4C3)CN2C1=O [AR00220042, (1S,4R,6S,14S,18R)-14-tert-Butoxycarbonylamino-18-(3,4-dihydro-1H-isoquinoline-2-carbonyloxy)-2,15-dioxo-3,16-diaza-tricyclo[14.3.0.0^4,6]nonadec-7-ene-4-carboxylic acid] | < 1000 | < 10000 | –
CC(C)(C)OC(=O)N[C@H]1CCCCC/C=C\[C@@H]2C[C@@]2(C(=O)O)NC(=O)[C@@H]2C[C@@H](OC(=O)N3CCc4ccc(N)cc4C3)CN2C1=O [AR00301749, (1S,4R,6S,14S,18R)-18-(7-Amino-3,4-dihydro-1H-isoquinoline-2-carbonyloxy)-14-tert-butoxycarbonylamino-2,15-dioxo-3,16-diaza— tricyclo[14.3.0.0^4,6]nonadec-7-ene-4-carboxylic acid] | < 1000 | < 10000 | –
COCC1c2cccc(F)c2CCN1C(=O)O[C@@H]1C[C@H]2C(=O)N[C@]3(C(=O)O)C[C@H]3/C=C\CCCCC[C@H](NC(=O)OC(C)(C)C)C(=O)N2C1 (stereo partly drawn) [AR00365349, (1S,4R,6S,14S,18R)-14-tert-Butoxycarbonylamino-18-(5-fluoro-1-methoxymethyl-3,4-dihydro-1H-isoquinoline-2-carbonyloxy)-2,15-dioxo-3,16-diaza-tricyclo[14.3.0.0^4,6]nonadec-7-ene-4-carboxylic acid] | < 1000 | < 1000 | –
CC(C)Nc1ccc2c(c1)CN(C(=O)O[C@@H]1C[C@H]3C(=O)N[C@]4(C(=O)NS(=O)(=O)C5CC5)C[C@H]4/C=C\CCCCC[C@H](NC(=O)OC(C)(C)C)C(=O)N3C1)C2 [AR00341649, (1S,4R,6S,14S,18R)-5-Isopropylamino-1,3-dihydro-isoindole-2-carboxylic acid 14-tert-butoxycarbonylamino-4-cyclopropanesulfonylaminocarbonyl-2,15-dioxo-3,16-diaza-tricyclo[14.3.0.0^4,6]nonadec-7-en-18-yl ester] | < 100 | < 100 | –
